Assay results from patent publication US8901138B2, “Sulfoximine substituted quinazolines for pharmaceutical compositions” (Boehringer Ingelheim International GmbH, priority 2012, dated 2014).

What was measured:
phosphorylated elF4E = conditions: cell culture cells transfected with MNK2 (MNK2a or MNK2b) or MNK1; cited from earlier work
MNK1a = MNK1a (Homo sapiens, UniProt Q9BUB5); experiment: MNK1 in vitro kinase assay (assay 2), Z'-LYTE; type: biochemical; conditions: for inhibition at 1 µM: compound concentration of 1 μM; for IC50: pre-activated GST-MNK1a
MNK1a, sequence (Q9BUB5 1-424 isoform Q9BUB5-2): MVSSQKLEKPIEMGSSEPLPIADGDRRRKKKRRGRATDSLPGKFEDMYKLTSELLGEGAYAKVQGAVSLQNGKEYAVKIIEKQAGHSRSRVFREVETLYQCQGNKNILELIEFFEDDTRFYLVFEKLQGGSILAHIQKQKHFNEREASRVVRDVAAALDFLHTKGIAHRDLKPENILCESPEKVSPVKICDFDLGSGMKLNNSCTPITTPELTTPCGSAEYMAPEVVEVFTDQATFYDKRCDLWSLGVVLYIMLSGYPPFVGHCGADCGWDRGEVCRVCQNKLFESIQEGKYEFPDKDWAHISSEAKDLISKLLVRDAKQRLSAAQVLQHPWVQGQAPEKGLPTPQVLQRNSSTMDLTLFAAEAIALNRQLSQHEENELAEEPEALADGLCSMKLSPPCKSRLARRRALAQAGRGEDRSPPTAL
In short: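 Pre-activated GST-MNK1a (13.5-54 ng) with 2 μM Ser/Thr 07 FRET peptide in 50 mM HEPES pH 7.5, 10 mM MgCl2, 2 mM MnCl2, 1 mM EGTA, 1 mM DTT, 1% DMSO; 1 h kinase then 1 h development at room temperature. Coumarin/fluorescein emission ratio gives % phosphorylation; sigmoidal dose-response fit.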

MNK2a = target: T1, MNK2a (Homo sapiens, UniProt Q9HBH9); experiment: MNK2a in vitro kinase assay (assay 1), ADP-Glo; type: biochemical; conditions: preactivated GST-MNK2a, 20 μM ATP, read-out: MNK2 IC50
T1 construct: made in house
T1 sequence (Q9HBH9 whole entry): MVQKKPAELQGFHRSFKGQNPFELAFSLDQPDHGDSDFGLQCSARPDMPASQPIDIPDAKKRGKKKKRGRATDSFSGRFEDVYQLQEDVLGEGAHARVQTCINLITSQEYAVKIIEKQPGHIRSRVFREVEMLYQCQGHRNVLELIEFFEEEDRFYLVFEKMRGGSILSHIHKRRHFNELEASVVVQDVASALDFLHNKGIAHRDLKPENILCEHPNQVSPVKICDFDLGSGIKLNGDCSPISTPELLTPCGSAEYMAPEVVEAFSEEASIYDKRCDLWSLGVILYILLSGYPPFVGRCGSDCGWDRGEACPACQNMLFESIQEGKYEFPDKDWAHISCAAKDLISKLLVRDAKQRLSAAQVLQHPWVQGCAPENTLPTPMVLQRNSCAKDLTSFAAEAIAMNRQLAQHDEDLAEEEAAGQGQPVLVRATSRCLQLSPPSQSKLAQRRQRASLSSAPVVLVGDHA
In short: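 Preactivated GST-MNK2a (10 nM) with eIF4E peptide (25 μM) and ATP (20 μM) in HEPES/DTT/MgCl2 buffer, 90 min at room temperature, final DMSO <3%. ADP formed read by ADP-Glo luminescence and normalised to vehicle and 20 μM reference-inhibitor controls; IC50 from dose-response curves.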

Row | SMILES | reduction of phosphorylated elF4E (phosphorylated elF4E) | inhibition at 1 µM (MNK1a) [%] | IC50 (MNK2a) [nM] | IC50 (MNK1a) [nM]
1 | Nc1ncnc2n[nH]c(Nc3ccc(F)cc3)c12 [CGP57380] | strong reduction |  |  | 
2 | CSc1cc(N=S(C)(C)=O)cc2ncnc(Nc3ccc(F)cc3O[C@H]3CCOC3)c12 [Example 7.10] |  | 100 | 2 | 
3 | CS(C)(=O)=Nc1cc(SCF)c2c(Nc3ccc(F)cc3O[C@H]3CCOC3)ncnc2c1 [Example 7.11] |  | 98 | 5 | 
4 | Cc1cc(N=S(C)(C)=O)cc2ncnc(Nc3ccc(F)cc3OC3CC3)c12 [Example 7.12] |  |  | 4 | 87
5 | Cc1cc(N=S(C)(C)=O)cc2ncnc(Nc3ccc(F)cc3O[C@H]3C[C@H](N(C)C)C3)c12 [Example 7.15] |  | 92 | 10 | 
6 | Cc1cc(N=S(C)(C)=O)cc2ncnc(Nc3ccc(F)cc3O[C@@H]3CCC[C@H]3O)c12 [Example 7.16] |  |  | 1 | 25
7 | Cc1cc(N=S(C)(C)=O)cc2ncnc(Nc3ccc(F)cc3O[C@@H]3CCCC[C@H]3F)c12 [Example 7.17] |  | 96 | 1 | 
8 | Cc1cc(N=S(C)(C)=O)cc2ncnc(Nc3ccc(F)cc3OC3CNOC3)c12 (stereo not drawn) [Example 7.18] |  | 93 | 2 | 
